Reference: a melting point compilation (Tetko et al.; mined from patent text by program, amines drawn as free bases though some values may be those of a salt)

With `CCOC(=O)c1c(C)cc2c(c1C)c(=O)n(-c1ccccc1Cl)c(=O)n2CC(=O)N(CC)CC` as the compound, how does the melting point read?
Its melting point is 228 to 229 °C.

For `CC(C)c1nc(CCOCc2ccccc2)n(CCO)c1Sc1cc(Cl)cc(Cl)c1`, which melting point is on record?
The melting point was 129 to 130 °C.

For `O=C1NCN(c2ccccc2)C12CCN(CC1=Cc3ccccc3CC1)CC2`, which melting point is on record?
The melting point was 205 to 206 °C.

For `COc1ccc(C(=O)c2ccccn2)cc1OC`, which melting point is on record?
Its melting point is 91.5 to 93 °C.

Which melting point does the source give for `O=C1c2ccc([N+](=O)[O-])cc2C(=O)N1C1CCN(CCc2ccccc2)CC1` here?
The melting point was 240 to 242 °C.

For `CN1C(=O)C(=O)NCC1(CCOC1CCCCO1)c1ccc(Cl)c(Cl)c1` (stereo unspecified), which melting point is on record?
The melting point was 260 °C.

Which melting point does the source give for `CN(C)c1ncnc2c1ncn2Cc1c(Cl)cccc1Cl` here?
Its melting point is 174 to 175 °C.

Which melting point does the source give for `CC(=O)NCCOc1ccc(-c2ccc(=O)n(Cc3ccc(Cl)cc3F)c2)cc1` here?
The melting point was 153 °C.

With `O=c1ccsn1Cc1ccc2c(c1)CCO2` as the compound, how does the melting point read?
Its melting point is 100 to 102 °C.

Which melting point does the source give for `NS(=O)(=O)c1ccc(NC(=O)[C@@H]2CCCN2C(=O)OCc2ccccc2)cc1` here?
The melting point was 165 to 166 °C.

With `Cc1ccc(-c2occc2C(N)=O)cc1` as the compound, how does the melting point read?
Its melting point is 174 °C.

For `c1ccc(Oc2ccc(OCCOn3cccn3)cc2)cc1`, which melting point is on record?
Its melting point is 83 to 85 °C.

Which melting point does the source give for `CC(=O)Nc1ncc2cc(-c3c(Cl)cccc3Cl)c(=O)n(C)c2n1` here?
Its melting point is 258 to 260 °C.

For `COc1ccc(CN2C(=O)C(C)(c3cc(NC(N)=O)ccc3Cl)c3cc(Cl)ccc32)c(OC)c1` (stereo unspecified), which melting point is on record?
Its melting point is 254 °C.

For `CCOC(=O)c1cc(Cl)cnc1NC(=O)Cc1cccc(Oc2ccccc2)c1`, which melting point is on record?
Its melting point is 103 to 104 °C.

With `CCNC(=O)c1sc2ccccc2c1[Si](C)(C)C` as the compound, how does the melting point read?
Its melting point is 131 to 134 °C.

Which melting point does the source give for `ClCSc1ncc(Cl)cn1` here?
Its melting point is 78 °C.

Which melting point does the source give for `CCOC(=O)c1ccc(C2CC(=O)N(C)C2C(O)c2ccc(-c3ccccc3)s2)cc1` (stereo unspecified) here?
The melting point was 177 to 179 °C.

With `CN(C)C(=O)N1CCc2ccc(Nc3nc4c(-c5cc(Cl)ccc5OCC(F)F)cccn4n3)cc2CC1` as the compound, how does the melting point read?
Its melting point is 98 to 99 °C.

With `CCOC(=O)c1cc2c(=O)n(C)c3ccccc3n2c1` as the compound, how does the melting point read?
Its melting point is 197 to 198 °C.

Which melting point does the source give for `CCc1[nH]c(=O)[nH]c1C(O)c1ccncc1` (stereo unspecified) here?
The melting point was 234 to 236 °C.

Which melting point does the source give for `CCc1nn2ccc3c(c2c1CCNC(C)=O)CCO3` here?
The melting point was 161 to 162 °C.

For `COc1cc(NC(C)=O)c2c(c1)OC(C)C2` (stereo unspecified), which melting point is on record?
The melting point was 104 °C.

For `CC(C)Cn1c(CO)nc2c(N)nc3c(c21)CCCC3`, which melting point is on record?
The melting point was 226 °C.

For `O=c1c2ccc(O)c(O)c2oc2cccc(O)c12`, which melting point is on record?
Its melting point is 300 to 301 °C.

Which melting point does the source give for `BrCC=C1c2ccccc2C=Cc2ccccc21` here?
Its melting point is 87.5 to 89.5 °C.

With `C#CCOC(=O)c1ccc(SC(C)CCCC(C)C)cc1` (stereo unspecified) as the compound, how does the melting point read?
Its melting point is 130 to 131 °C.

With `C=Cc1cn(-c2c(Cl)cc(C(F)(F)F)cc2Cl)nc1C#N` as the compound, how does the melting point read?
The melting point was 75 to 76 °C.

With `CCC1C(=O)Nc2cc(N)c(N)cc21` (stereo unspecified) as the compound, how does the melting point read?
The melting point was > 300 °C.

For `O=C1CC[N+]([O-])=C(c2ccccc2F)c2cc(Cl)ccc21`, which melting point is on record?
Its melting point is 166 to 168 °C.

With `CN1C(=O)C2C3C=CC(C3)C2(c2ccc(F)c(F)c2)C1=O` (stereo unspecified) as the compound, how does the melting point read?
The melting point was 116 to 120 °C.

Which melting point does the source give for `NC(=O)c1cc(-c2ccc(Cl)cc2)on1` here?
Its melting point is 224 to 225 °C.

For `OC(=S)CCCc1nn(-c2ccccc2)c2c1CCCC2`, which melting point is on record?
Its melting point is 105 to 106 °C.

Which melting point does the source give for `COc1ccc(C(=O)CCC(=O)N[C@@H](Cc2ccccc2)C(=O)O)cc1` here?
The melting point was 131 to 133 °C.

Which melting point does the source give for `O=CN[C@H]1CC[C@H](CCN2CCN(c3nccc4c3OCC4)CC2)CC1` here?
The melting point was 154 °C.

Which melting point does the source give for `Cc1c(-c2ccc(F)cc2)oc2c(-c3ccc(S(C)(=O)=O)cc3)c(-c3ccc(F)cc3)nn12` here?
The melting point was 289 to 291 °C.

For `CC(=O)OCC(COCn1cnc2c(=O)[nH]c(N)nc21)OC(C)=O` (stereo unspecified), which melting point is on record?
The melting point was 222 to 224 °C.

Which melting point does the source give for `C#CC1(O)C(CO)OC(n2ccc(=O)[nH]c2=O)C1O` (stereo unspecified) here?
The melting point was 226 to 228 °C.

For `CCn1c(CCl)nc2c([N+](=O)[O-])cc(Br)cc21`, which melting point is on record?
Its melting point is 154 to 155 °C.

Which melting point does the source give for `CCOC(=O)c1cn(C2CC2)c2c(C#N)c(N3C[C@@H]4CCCN[C@@H]4C3)c(F)cc2c1=O` here?
The melting point was 209 to 210 °C.

With `COc1cc2ncnc(N3CCN(C(=O)Nc4ccc(N5CCOCC5)cc4)CC3)c2cc1OC` as the compound, how does the melting point read?
Its melting point is 254 to 256 °C.
